How the values were obtained:
[1] = biological target: GDP-bound NRAS wild-type protein (Homo sapiens, UniProt P01111); assay: Binding to NRAS by surface plasmon resonance (SPR), Single Cycle Kinetics; details: KD ratio, GDP-bound NRAS wild-type vs GDP-bound KRAS wild-type, SPR
[2] = biological target: GDP-bound HRAS wild-type protein (Homo sapiens, UniProt P01112); assay: Binding to HRAS by surface plasmon resonance (SPR), Single Cycle Kinetics; details: KD ratio, GDP-bound HRAS wild-type vs GDP-bound KRAS wild-type, SPR
Chain of GDP-bound HRAS wild-type protein (P01112 whole entry): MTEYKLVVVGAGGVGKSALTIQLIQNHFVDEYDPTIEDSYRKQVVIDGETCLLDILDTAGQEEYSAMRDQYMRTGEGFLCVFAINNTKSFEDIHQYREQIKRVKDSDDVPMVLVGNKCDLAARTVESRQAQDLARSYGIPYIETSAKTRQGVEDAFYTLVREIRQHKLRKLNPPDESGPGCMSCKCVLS

Chain of GDP-bound NRAS wild-type protein (P01111 whole entry): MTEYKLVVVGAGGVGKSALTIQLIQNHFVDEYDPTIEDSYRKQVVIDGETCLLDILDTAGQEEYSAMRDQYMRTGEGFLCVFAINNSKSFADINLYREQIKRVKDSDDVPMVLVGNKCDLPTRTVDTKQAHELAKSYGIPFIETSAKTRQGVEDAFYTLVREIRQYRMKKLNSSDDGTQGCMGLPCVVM

| SMILES | NRAS/KRAS (ratio of KD value with respect to NRAS to KD value with respect to KRAS) [1] | HRAS/KRAS (ratio of KD value with respect to HRAS to KD value with respect to KRAS) [2] |
| --- | --- | --- |
| CCO[C@@H]1C[C@H]2C(=O)NC3(CCCC3)C(=O)N(C)[C@@H](C3CCCC3)C(=O)N(C)[C@H](C(=O)N(C)C)CC(=O)N(C)[C@@H](CC)C(=O)N[C@@H]([C@@H](C)CC)C(=O)N(C)CC(=O)N(C)[C@H]3CC(C)=CCN(C3=O)[C@@H](Cc3ccc(C(F)(F)F)cc3)C(=O)N(C)CC(=O)N[C@@H](CCc3cc(F)c(C(F)(F)F)c(F)c3)C(=O)N2C1 [PP1036] | C (A compound having a KD ratio of 0.1 or more and less than 3 is denoted as C) | C (A compound having a KD ratio of 0.1 or more and less than 3 is denoted as C) |
| CCO[C@@H]1C[C@H]2C(=O)NC3(CCC3)C(=O)N(C)[C@@H](C3CCCC3)C(=O)N(C)[C@H](C(=O)N(C)C)CC(=O)N(CC)[C@@H](CC(C)C)C(=O)N[C@@H]([C@@H](C)CC)C(=O)N(C)CC(=O)N(C)[C@H]3CC(C)=CCN(C3=O)[C@@H](Cc3ccc(C(F)(F)F)cc3)C(=O)N(C)CC(=O)N[C@@H](CCc3cc(F)c(C(F)(F)F)c(F)c3)C(=O)N2C1 [PP1037] | C (A compound having a KD ratio of 0.1 or more and less than 3 is denoted as C) | C (A compound having a KD ratio of 0.1 or more and less than 3 is denoted as C) |
| CCO[C@@H]1C[C@H]2C(=O)NC3(CCCC3)C(=O)N(C)[C@@H](C3CCCC3)C(=O)N(C)[C@H](C(=O)N3CCOCC3)CC(=O)N(C)[C@@H](CC(C)C)C(=O)N[C@@H]([C@@H](C)CC)C(=O)N(C)CC(=O)N(C)[C@H]3CC(C)=CCN(C3=O)[C@@H](Cc3ccc(C(F)(F)F)cc3)C(=O)N(C)CC(=O)N[C@@H](CCc3cc(F)c(C(F)(F)F)c(F)c3)C(=O)N2C1 [PP1038] | C (A compound having a KD ratio of 0.1 or more and less than 3 is denoted as C) | C (A compound having a KD ratio of 0.1 or more and less than 3 is denoted as C) |
| CCO[C@@H]1C[C@H]2C(=O)NC3(CCC3)C(=O)N(C)[C@@H](C3CCCC3)C(=O)N(C)[C@H](C(=O)N3CCOCC3)CC(=O)N(C)[C@@H](CC(C)C)C(=O)N[C@@H]([C@@H](C)CC)C(=O)N(C)CC(=O)N(C)[C@H]3CC(C)=CCN(C3=O)[C@@H](Cc3ccc(C(F)(F)F)cc3)C(=O)N(C)CC(=O)N[C@@H](CCc3cc(F)c(C(F)(F)F)c(F)c3)C(=O)N2C1 [PP1039] | C (A compound having a KD ratio of 0.1 or more and less than 3 is denoted as C) | C (A compound having a KD ratio of 0.1 or more and less than 3 is denoted as C) |
| CCO[C@@H]1C[C@H]2C(=O)NC3(CCC3)C(=O)N(C)[C@@H](C3CCCC3)C(=O)N(C)[C@H](C(=O)N3CCOCC3)CC(=O)N(C)[C@@H](CC(C)C)C(=O)N[C@@H]([C@@H](C)CC)C(=O)N3CC[C@H]3C(=O)N(C)[C@H]3CC(C)=CCN(C3=O)[C@@H](Cc3ccc(C(F)(F)F)cc3)C(=O)N(C)CC(=O)N[C@@H](CCc3cc(F)c(C(F)(F)F)c(F)c3)C(=O)N2C1 [PP1040] | C (A compound having a KD ratio of 0.1 or more and less than 3 is denoted as C) | C (A compound having a KD ratio of 0.1 or more and less than 3 is denoted as C) |
| CCO[C@@H]1C[C@H]2C(=O)NC3(CCC3)C(=O)N(C)[C@@H](C3CCCC3)C(=O)N(C)[C@H](C(=O)N3CCOCC3)CC(=O)N(C)[C@@H](CC)C(=O)N[C@@H]([C@@H](C)CC)C(=O)N(C)CC(=O)N(C)[C@H]3CC(C)=CCN(C3=O)[C@@H](Cc3ccc(C(F)(F)F)cc3)C(=O)N(C)CC(=O)N[C@@H](CCc3cc(F)c(C(F)(F)F)c(F)c3)C(=O)N2C1 [PP1041] | C (A compound having a KD ratio of 0.1 or more and less than 3 is denoted as C) | C (A compound having a KD ratio of 0.1 or more and less than 3 is denoted as C) |
| CCO[C@@H]1C[C@H]2C(=O)NC3(CCC3)C(=O)N(C)[C@@H](C3CCCC3)C(=O)N(C)[C@H](C(=O)N3CCOCC3)CC(=O)N(C)[C@@H](CC)C(=O)N[C@@H]([C@@H](C)CC)C(=O)N3CC[C@H]3C(=O)N(C)[C@H]3CC(C)=CCN(C3=O)[C@@H](Cc3ccc(C(F)(F)F)cc3)C(=O)N(C)CC(=O)N[C@@H](CCc3cc(F)c(C(F)(F)F)c(F)c3)C(=O)N2C1 [PP1042] | C (A compound having a KD ratio of 0.1 or more and less than 3 is denoted as C) | C (A compound having a KD ratio of 0.1 or more and less than 3 is denoted as C) |
| CCO[C@@H]1C[C@H]2C(=O)NC3(CCCC3)C(=O)N(C)[C@@H](C3CCCC3)C(=O)N(C)[C@H](C(=O)N3CCOCC3)CC(=O)N(C)[C@@H](CC)C(=O)N[C@@H]([C@@H](C)CC)C(=O)N(C)CC(=O)N(C)[C@H]3CC(C)=CCN(C3=O)[C@@H](Cc3ccc(C(F)(F)F)cc3)C(=O)N(C)CC(=O)N[C@@H](CCc3cc(F)c(C(F)(F)F)c(F)c3)C(=O)N2C1 [PP1043] | C (A compound having a KD ratio of 0.1 or more and less than 3 is denoted as C) | C (A compound having a KD ratio of 0.1 or more and less than 3 is denoted as C) |
| CCO[C@@H]1C[C@H]2C(=O)NC3(CCC3)C(=O)N(C)[C@@H](C3CCCC3)C(=O)N(C)[C@H](C(=O)N3CCOCC3)CC(=O)N(CC)[C@@H](CC(C)C)C(=O)N[C@@H]([C@@H](C)CC)C(=O)N(C)CC(=O)N(C)[C@H]3CC(C)=CCN(C3=O)[C@@H](Cc3ccc(C(F)(F)F)cc3)C(=O)N(C)CC(=O)N[C@@H](CCc3cc(F)c(C(F)(F)F)c(F)c3)C(=O)N2C1 [PP1044] | C (A compound having a KD ratio of 0.1 or more and less than 3 is denoted as C) | C (A compound having a KD ratio of 0.1 or more and less than 3 is denoted as C) |
| CCO[C@@H]1C[C@H]2C(=O)NC3(CCCC3)C(=O)N(C)[C@@H](C3CCCC3)C(=O)N(C)[C@H](C(=O)N(C)C)CC(=O)N(C)[C@@H](CC(C)C)C(=O)N[C@@H]([C@@H](C)CC)C(=O)N(C)CC(=O)N(C)[C@H]3CC(C)=C(C)CN(C3=O)[C@@H](Cc3ccc(C(F)(F)F)cc3)C(=O)N(C)CC(=O)N[C@@H](CCc3cc(F)c(C(F)(F)F)c(F)c3)C(=O)N2C1 [PP1045] | C (A compound having a KD ratio of 0.1 or more and less than 3 is denoted as C) | C (A compound having a KD ratio of 0.1 or more and less than 3 is denoted as C) |
| CCO[C@@H]1C[C@H]2C(=O)NC3(CCC3)C(=O)N(C)[C@@H](C3CCCC3)C(=O)N(C)[C@H](C(=O)N(C)C)CC(=O)N(C)[C@@H](CC(C)C)C(=O)N[C@@H]([C@@H](C)CC)C(=O)N3CC[C@H]3C(=O)N(C)[C@H]3CC(C)=C(C)CN(C3=O)[C@@H](Cc3ccc(C(F)(F)F)cc3)C(=O)N(C)CC(=O)N[C@@H](CCc3cc(F)c(C(F)(F)F)c(F)c3)C(=O)N2C1 [PP1047] | C (A compound having a KD ratio of 0.1 or more and less than 3 is denoted as C) | C (A compound having a KD ratio of 0.1 or more and less than 3 is denoted as C) |
| CCO[C@@H]1C[C@H]2C(=O)NC3(CCC3)C(=O)N(C)[C@@H](C3CCCC3)C(=O)N(C)[C@H](C(=O)N(C)C)CC(=O)N(C)[C@@H](CC)C(=O)N[C@@H]([C@@H](C)CC)C(=O)N(C)CC(=O)N(C)[C@H]3CC(C)=C(C)CN(C3=O)[C@@H](Cc3ccc(C(F)(F)F)cc3)C(=O)N(C)CC(=O)N[C@@H](CCc3cc(F)c(C(F)(F)F)c(F)c3)C(=O)N2C1 [PP1048] | C (A compound having a KD ratio of 0.1 or more and less than 3 is denoted as C) | C (A compound having a KD ratio of 0.1 or more and less than 3 is denoted as C) |
| CCO[C@@H]1C[C@H]2C(=O)NC3(CCC3)C(=O)N(C)[C@@H](C3CCCC3)C(=O)N(C)[C@H](C(=O)N(C)C)CC(=O)N(C)[C@@H](CC)C(=O)N[C@@H]([C@@H](C)CC)C(=O)N3CC[C@H]3C(=O)N(C)[C@H]3CC(C)=C(C)CN(C3=O)[C@@H](Cc3ccc(C(F)(F)F)cc3)C(=O)N(C)CC(=O)N[C@@H](CCc3cc(F)c(C(F)(F)F)c(F)c3)C(=O)N2C1 [PP1049] | C (A compound having a KD ratio of 0.1 or more and less than 3 is denoted as C) | C (A compound having a KD ratio of 0.1 or more and less than 3 is denoted as C) |
| CCO[C@@H]1C[C@H]2C(=O)NC3(CCCC3)C(=O)N(C)[C@@H](C3CCCC3)C(=O)N(C)[C@H](C(=O)N(C)C)CC(=O)N(C)[C@@H](CC)C(=O)N[C@@H]([C@@H](C)CC)C(=O)N(C)CC(=O)N(C)[C@H]3CC(C)=C(C)CN(C3=O)[C@@H](Cc3ccc(C(F)(F)F)cc3)C(=O)N(C)CC(=O)N[C@@H](CCc3cc(F)c(C(F)(F)F)c(F)c3)C(=O)N2C1 [PP1050] | C (A compound having a KD ratio of 0.1 or more and less than 3 is denoted as C) | C (A compound having a KD ratio of 0.1 or more and less than 3 is denoted as C) |
| CCO[C@@H]1C[C@H]2C(=O)NC3(CCC3)C(=O)N(C)[C@@H](C3CCCC3)C(=O)N(C)[C@H](C(=O)N(C)C)CC(=O)N(CC)[C@@H](CC(C)C)C(=O)N[C@@H]([C@@H](C)CC)C(=O)N(C)CC(=O)N(C)[C@H]3CC(C)=C(C)CN(C3=O)[C@@H](Cc3ccc(C(F)(F)F)cc3)C(=O)N(C)CC(=O)N[C@@H](CCc3cc(F)c(C(F)(F)F)c(F)c3)C(=O)N2C1 [PP1051] | C (A compound having a KD ratio of 0.1 or more and less than 3 is denoted as C) | C (A compound having a KD ratio of 0.1 or more and less than 3 is denoted as C) |

Reference: patent publication US20250230193A1, “CYCLIC COMPOUND HAVING SELECTIVE KRAS INHIBITORY EFFECT ON HRAS AND NRAS” (CHUGAI SEIYAKU KABUSHIKI KAISHA, priority 2022, published 2025)
